pIC50: −log10 of the molar value.

Assay [1] deals with dextran-induced oedema formation in mouse ear. In words: Dextran-induced oedema formation in mouse ear. Type of assay: in vivo, Male Swiss mice. The conditions noted are these: vs background blueing value; for inhibition in vivo at 5 mg/kg / inhibition in vivo at 2.5 mg/kg: Mus musculus, 1 h, read-out: % inhibition of the extravasation of the dye. Here is the method:
Dextran-induced oedema formation in mouse ear Systemic injection of dextran T500 in normal, non-sensitized mice elicits increased vascular permeability, leading to extravasation and oedema of the extremities. When dextran is injected together with a blue dye, blueing of the ears is the most prominent feature of oedematous response. Male Swiss mice weighting 24-26 g were orally pretreated with the test compound dissolved in PEG-200 at different concentrations or solvent. One hour later, the mice were given an intravenous injection with an isotonic saline solution containing 12 mg/ml dextran T500 and 2.6 mg/ml pontamine sky-blue dye, in a volume of 0.1 ml per 10 g body weight. One hour and forty-five minutes later, the animals are sacrificed by ether and their ears removed. Extraction and quantification of the extravasated dye is done as described by Van Wauwe and Goossens (Drug Dev. Res. 1986, 8, 213-218). The extravasation of the dye is characterized by the blueing value which is defined as the concentration of the extracted dye in both ears. The background blueing value was determined once as the mean blueing value obtained by injecting a group of mice with a saline solution containing only dextran T500 and the blue dye. Table 6 lists the percentage inhibition of the extravasation of the dye when compared with the background extravasation of the dye when the test compound was administered at a dose of 5 mg/kg. The test compounds indicated by an asterisk (*) were tested at a dose of 2.5 mg/kg

The target in assay [2] is T1, recombinant human MNL phosphodiesterase type IV B (Homo sapiens, UniProt Q07343).
T1 construct: made in house; host or cells: insect cells infected with recombinant baculovirus
Briefly: Inhibition of recombinant human mononuclear lymphocyte (MNL) phosphodiesterase type IV B produced in insect cells with a baculovirus vector. Type of assay: biochemical. The conditions noted are these: recombinant human MNL PDE IV B; 0.8 μM 3H-cAMP, pH 8, 37° C.; calculated graphically. Here is the method: Inhibition of recombinant human mononuclear lymphoctye (MNL) phosphodiesterase type IV B produced in insect cells with a baculovirus vector
The alleviating and/or curing effect of the instant compounds on allergic and atopic diseases was assessed by an in vitro assay system to detect an inhibiting effect on the recombinant human MNL phosphodiesterase type IV B.
Seventy-two hours after infection with recombinant baculovirus, the insect cells were harvested and pelleted at 500 g for 5 minutes. The cells were lysed in 10 ml lysis-buffer consisting of 20 mM Tris, 10 mM EGTA, 2 mM Na2EDTA, 1% Triton-X-100, 1 mM Na3VO4, 10 mM NaF, 2 μg/ml of leupeptine, pepstatine and aprotinine, 0.3 μg/ml benzamidine and 100 μg/ml TPCK pH 7.5. After 5 minutes on ice, solubilized cells were centrifuged at 4000 rpm for 15 minutes at 4° C. The resulting supernatant was filtered through a 0.45 μm filter (Millipore) and brought to TBS buffer (50 mM Tris, 150 mM NaCl pH 7.4).
After washing the column with equilibration buffer, PDE IV was eluted in 1.5 ml fractions containing 37.5 μl 1M Tris pH 8. The fractions were dialyzed overnight against 20 mM Tris, 2 mM Na2EDTA and 400 mM NaCl pH 7.5 and tested for PDE IV activity. Identification was done on SDS PAGE and Western Blot (anti-FLAG-M2). Active fractions were pooled, brought to 10% glycerol and stored at −70° C.
The incubation mixture (pH 8) (200 μl) contained 20 mM Tris, 10 mM magnesium sulphate, 0.8 μM ^3H-cAMP (310 mCi/mmole) and the phosphodiesterase type IV, the amount depending on the enzymatic activity.
When the effect of different compounds on phosphodiesterase activity was tested, the medium without cAMP was incubated with the compound(s) or its carrier (DMSO-1% final concentration) for 5 min. The enzymatic reaction was started by addition of ^3H-cAMP and stopped 10 min later after transferring the microtiter-plate in a waterbath at 100° C. for 5 min. After cooling to room temperature, alkaline phosphatase (0.25 μg/ml) was added and the mixture was incubated at 37° C. for 20 min. 100 μl of the mixture was subsequently applied to a GF-B filter-microtiter-plate (Millipore) filled with 300 μl DEAE-Sephadex-A25 suspension. The plate was washed 3 times with 75 μl 20 mM Tris pH 7.5 and the filtrates were collected for counting in the Packard Top Count scintillation counter.
The inhibiting effect of the present compounds on recombinant human MNL phosphodiesterase PDE IV B was measured at different concentrations of the instant compounds. The IC50 values (expressed in M) were calculated graphically from the thus obtained inhibition values.

Setting [3] is: oral dose of 5 mg/kg in PEG-200, one hour before i.v. dextran T500/pontamine sky-blue.
Setting [4] is: asterisk (*): oral dose of 2.5 mg/kg in PEG-200, one hour before i.v. dextran T500/pontamine sky-blue.
[5] abbreviates: oral dose of 5 mg/kg in PEG-200, one hour before i.v. dextran T500/pontamine sky-blue, 5 mg/kg.

T1 sequence (Q07343 whole entry): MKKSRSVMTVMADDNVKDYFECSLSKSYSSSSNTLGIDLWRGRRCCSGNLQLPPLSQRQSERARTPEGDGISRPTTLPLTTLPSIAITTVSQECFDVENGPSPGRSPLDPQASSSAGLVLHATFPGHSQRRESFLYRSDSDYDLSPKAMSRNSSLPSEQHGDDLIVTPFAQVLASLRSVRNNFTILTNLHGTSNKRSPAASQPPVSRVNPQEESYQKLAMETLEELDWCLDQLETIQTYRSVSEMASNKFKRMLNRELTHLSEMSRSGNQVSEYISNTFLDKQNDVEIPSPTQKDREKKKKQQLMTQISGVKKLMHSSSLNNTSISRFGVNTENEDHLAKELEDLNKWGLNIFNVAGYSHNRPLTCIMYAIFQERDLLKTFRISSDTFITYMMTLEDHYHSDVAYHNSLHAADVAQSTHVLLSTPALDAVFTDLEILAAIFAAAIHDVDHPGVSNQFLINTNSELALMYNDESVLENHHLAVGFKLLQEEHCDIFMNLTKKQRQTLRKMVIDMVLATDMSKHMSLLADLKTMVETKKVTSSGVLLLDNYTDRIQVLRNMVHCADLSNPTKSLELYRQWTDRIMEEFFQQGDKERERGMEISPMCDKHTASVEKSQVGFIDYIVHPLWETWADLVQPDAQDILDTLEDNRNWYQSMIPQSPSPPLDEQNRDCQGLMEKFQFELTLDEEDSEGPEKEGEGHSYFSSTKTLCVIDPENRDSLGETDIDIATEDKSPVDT

Turning to “1,3-dihydro-1-[2-(3,4-dimethoxyphenyl)ethyl]-2-methyl-3H-imidazol-2-one [Compound 86]”, in assay [1] (setting [3]), the “% inhibition of the extravasation of the dye” value (shortened to “% inhibition”) stood at 39.0%. In addition, the pIC50 in assay [2] is 5.74.

Take `COc1ccc(C(C)Cn2cc[nH]c2=O)cc1OC1CCCC1` (racemic) [Compound 1, (±)-1-[2-[3-(cyclopentyloxy)-4-methoxyphenyl]propyl]-1,3-dihydro-2H-imidazol-2-one]: the inhibition in vivo at 5 mg/kg in assay [1] (setting [3]) is 83.1%. Further, the pIC50 in assay [2] is 8.32. Consider `COc1ccc(C(O)(Cn2cc[nH]c2=O)c2ccccc2)cc1OC1CCCC1` (racemic) [Compound 8, (±)-1-[2-[3-(cyclopentyloxy)-4-methoxyphenyl]-2-hydroxy-2-phenylethyl]-1,3-dihydro-2H-imidazol-2-one], for which, in assay [1] (setting [3]), the inhibition in vivo at 5 mg/kg came out at 12.4%. For the same compound, the pIC50 in assay [2] is 5.72.

Regarding `CCOC(=O)Cn1ccn(C(C)c2ccc(OC)c(OC3CCCC3)c2)c1=O` (racemic) [Compound 9, (±)-ethyl 3-[1-[3-(cyclopentyloxy)-4-methoxy-phenyl]ethyl]-2,3-dihydro-2-oxo-1H-imidazole-1-acetate], in assay [1] (setting [3]), the inhibition in vivo at 5 mg/kg is 10.2%. As to `COc1ccc(C(C)Cn2cc[nH]c2=O)cc1OCC1CC1` (racemic) [Compound 10, (±)-1-[2-[3-(cyclopropylmethoxy)-4-methoxyphenyl]propyl]-1,3-dihydro-2H-imidazol-2-one], the inhibition in vivo at 5 mg/kg in assay [1] (setting [3]) is 91.9%. In addition, the pIC50 in assay [2] was more than 8.00. Take `COc1ccc(C(N)CN2CCN(Cc3ccccc3)C2=O)cc1OC` (racemic) [Compound 11, (±)-1-[2-amino-2-(3,4-dimethoxyphenyl)ethyl]-3-(phenylmethyl)-2-imidazolidinone]: the inhibition in vivo at 5 mg/kg in assay [1] (setting [3]) came out at 26.8%. With `COc1ccc(C(O)CN2CCNC2=O)cc1OC` (racemic) [Compound 13, ±)-1-[2-(3,4-dimethoxyphenyl)-2-hydroxy-ethyl]-2-imidazolidinone], in assay [1] (setting [3]), the “% inhibition” value is reported as 36.3%.

On to `COc1ccc(C(CN2CCNC2=O)NC(C)=O)cc1OC` (racemic) [Compound 16, (±)-N-[1-(3,4-dimethoxyphenyl)[2-(2-oxo-1-imidazolidinyl)-ethyl]acetamide], for which, in assay [1] (setting [3]), the “% inhibition” value turned out to be 10.8%. Turning to `COc1ccc(C(O)Cn2cc[nH]c2=O)cc1O` (racemic) [Compound 19, (±)-1,3-dihydro-1-[2-hydroxy-2-(3-hydroxy-4-methoxyphenyl)ethyl]-2H-imidazol-2-one], in assay [1] (setting [4]), the inhibition in vivo at 2.5 mg/kg came out at 49.4%. Regarding `O=c1[nH]ccn1CC(F)c1ccc(OC(F)F)c(OCC2CC2)c1` (racemic) [Compound 20, (±)-1-[2-[3-(cyclopropylmethoxy)-4-(difluoromethoxy)phenyl-2-fluoroethyl]-1,3-dihydro-2H-imidazol-2-one], in assay [1] (setting [4]), the “% inhibition” value is reported as 94.4%. As for `COc1ccc(C(C)Cn2cc[nH]c2=O)cc1OC1CCCC1` (stereo not shown) [Compound 6, (A)-1-[2-[3-(cyclopentyloxy)-4-methoxy-phenyl]propyl]-1,3-dihydro-2H-imidazol-2-one], the “% inhibition” value in assay [1] (setting [5]) is on record as 85.1%. The negative-log IC50 (pIC50) in assay [2] was 8.39. Turning to `COc1ccc(C(C)Cn2cc[nH]c2=O)cc1OC1CCCC1` (stereo not shown) [Compound 7, (B)-1-[2-[3-(cyclopentyloxy)-4-methoxyphenyl]propyl]-1,3-dihydro-2H-imidazol-2-one], the “% inhibition” value in assay [1] (setting [5]) came out at 67.0%. Further, the negative logarithm of the IC50 (pIC50) in assay [2] is 7.37. For `COc1ccc(C(C)Cn2cc[nH]c2=O)cc1OCC1CC1` (stereo not shown) [Compound 22, (A)-1-[2-[3-(cyclopropylmethoxy)-4-methoxyphenyl]propyl]-1,3-dihydro-2H-imidazol-2-one], the inhibition in vivo at 5 mg/kg in assay [1] (setting [3]) was found to be 83.5%. For the same compound, the negative logarithm of the IC50 (pIC50) in assay [2] was 7.35. On to `COc1ccc(C(C)Cn2cc[nH]c2=O)cc1OCC1CC1` (stereo not shown) [Compound 23, (B)-1-[2-[3-(cyclopropylmethoxy)-4-methoxyphenyl]propyl]-1,3-dihydro-2H-imidazol-2-one], for which the “% inhibition” value in assay [1] (setting [3]) is 72.1%.

Regarding `COc1ccc(C(C)Cn2cc[nH]c2=O)cc1OC1CCOC1` (stereo not shown) [Compound 29], in assay [1] (setting [4]), the inhibition in vivo at 2.5 mg/kg stood at 90.7%. Also, the negative-log IC50 (pIC50) in assay [2] was 6.62. Consider `COc1ccc(C(C)Cn2cc[nH]c2=O)cc1OCC1CCCC1` (stereo not shown) [Compound 32], for which the inhibition in vivo at 5 mg/kg in assay [1] (setting [3]) was determined as 76.2%. For the same compound, the pIC50 in assay [2] was 6.85.

Take `COc1ccc(C(C)Cn2cc[nH]c2=O)cc1OCC1CCCO1` (stereo not shown) [Compound 33]: the inhibition in vivo at 5 mg/kg in assay [1] (setting [3]) is 65.8%. Besides, in assay [2], the negative logarithm of the IC50 (pIC50) is 5.64. In the case of `CC(Cn1cc[nH]c1=O)c1ccc(OC(F)F)c(OCc2ccccc2)c1` (stereo not shown) [Compound 34], in assay [1] (setting [3]), the inhibition in vivo at 5 mg/kg turned out to be 31.1%. In addition, the pIC50 in assay [2] is 6.72. As for `COc1ccc(CCn2cc[nH]c2=O)cc1OC1CCOC1` (stereo not shown) [Compound 35], in assay [1] (setting [3]), the inhibition in vivo at 5 mg/kg was determined as 90.1%. In assay [2], the pIC50 was 6.74.

`CC(Cn1ccnc1O)c1ccc(OC(F)F)c(OC2CCCC2)c1` (stereo not shown) [Compound 37]: the inhibition in vivo at 5 mg/kg in assay [1] (setting [3]) was 75.7%. The pIC50 in assay [2] was 9.15. Consider `CC(Cn1cc[nH]c1=O)c1ccc(OC(F)F)c(OC(F)F)c1` (stereo not shown) [Compound 38], for which the inhibition in vivo at 5 mg/kg in assay [1] (setting [3]) came out at 76.6%. The pIC50 in assay [2] was 7.70.

As to `COc1ccc(C(C)Cn2cc[nH]c2=O)cc1OC` (stereo not shown) [Compound 76, 1,3-dihydro-1-[2-(3,4-dimethoxyphenyl)propyl]-2H-imidazol-2-one], the inhibition in vivo at 5 mg/kg in assay [1] (setting [3]) is 69%. For the same compound, the negative logarithm of the IC50 (pIC50) in assay [2] was 6.82. Regarding `COc1ccc(C(C)Cn2c(C)c[nH]c2=O)cc1OC` (stereo not shown) [Compound 77, 1,3-dihydro-1-[2-(3,4-dimethoxyphenyl)propyl]-5-methyl-2H-imidazol-2-one], the inhibition in vivo at 5 mg/kg in assay [1] (setting [3]) was determined as 35.8%. For the same compound, in assay [2], the pIC50 is 5.14. `COc1ccc(CCN2CCNC2=O)cc1OC` [Compound 78, 1-[2-(3,4-dimethoxyphenyl)ethyl]-1,3,4,5-tetrahydro-2H-imidazol-2-one]: in assay [1] (setting [3]), the inhibition in vivo at 5 mg/kg is 31.3%. Besides, in assay [2], the pIC50 is 5.05. `COc1ccc(CCn2cc[nH]c2=O)cc1OC` [Compound 79, 1,3-dihydro-1-[2-(3,4-dimethoxyphenyl)ethyl]-2H-imidazol-2-one]: the inhibition in vivo at 5 mg/kg in assay [1] (setting [3]) came out at 61.6%. In addition, in assay [2], the negative logarithm of the IC50 (pIC50) is 6.11.

On to `COc1cc(Br)c(CCn2cc[nH]c2=O)cc1OC` [Compound 81, 1,3-dihydro-2-[2-(2-bromo-4,5-dimethoxyphenyl)ethyl]-2H-imidazol-2-one], for which the “% inhibition” value in assay [1] (setting [3]) was determined as 34.1%.

`COc1ccc(Cn2cc[nH]c2=O)cc1OC` [Compound 84, 1,3-dihydro-1-[(3,4-dimethoxyphenyl)methyl]-2H-imidazol-2-one]: the inhibition in vivo at 5 mg/kg in assay [1] (setting [3]) was determined as 46.5%. With `COc1ccc(CCCn2cc[nH]c2=O)cc1OC` [Compound 85, 1,3-dihydro-1-[3-(3,4-dimethoxyphenyl)propyl]-2H-imidazol-2-one], the inhibition in vivo at 5 mg/kg in assay [1] (setting [3]) was determined as 31.6%.

Source of the values: patent US6403805B1 (Janssen Pharmaceutica N.V., priority 1995, dated 2002).
